In ChEMBL document CHEMBL3792288, “VP1 crystal structure-guided exploration and optimization of 4,5-dimethoxybenzene-based inhibitors of rhinovirus 14 infection” (Eur J Med Chem, 2016):
Calls of active or inactive are those of the source. No cut-off for these calls is given here.

Tests used:
[1] = test system: Rhinovirus A; test: Antiviral activity against Human Rhinovirus A serotype 2 infected in HeLa Rh cells assessed as reduction of virus-induced cytopathic effect after 3 days by MTS assay; format: functional, cell-based
[2] = test system: Rhinovirus B; test: Antiviral activity against Human Rhinovirus B serotype 14 infected in HeLa Rh cells assessed as reduction of virus-induced cytopathic effect after 3 days by MTS assay; format: functional, organism-based; details: serotype 14, HeLa Rh, 72 h
[3] = Cytotoxicity against human HeLa Rh cells assessed as cell viability by light microscopy; format: cell-based
[4] = Selectivity index, ratio of CC50 for human HeLa Rh cells to EC50 for Human Rhinovirus B serotype 14 infected in HeLa Rh cells; format: toxicity, cell-based; details: read-out: Ratio CC50/EC50

SMILES | Activity [1] | EC50 [2] [µM] | CC50 [3] [µM] | selectivity ratio [4]
COc1cc(CC(O)c2ccc(-c3ccc(CO)cc3)cc2)c([N+](=O)[O-])cc1OC (stereo not drawn) | inactive | > 244 | > 244 | –
COc1cc(CC(O)c2ccc(-c3ccccc3[N+](=O)[O-])cc2)c([N+](=O)[O-])cc1OC (stereo not drawn) | inactive | 1.5 | 9.5 | 6.3
COc1cc(CC(O)c2ccc(-c3cccs3)cc2)c([N+](=O)[O-])cc1OC (stereo not drawn) | inactive | 1.6 | 11 | 6.9
COc1cc(CC(O)c2ccc(-c3ccccc3CO)cc2)c([N+](=O)[O-])cc1OC (stereo not drawn) | inactive | 3 | 24 | 8
COc1cc(CC(O)c2ccc(C#N)cc2)c([N+](=O)[O-])cc1OC (stereo not drawn) | – | 2.2 | 104 | –
COc1cc(CC(O)c2ccc(-c3cccc([N+](=O)[O-])c3)cc2)c([N+](=O)[O-])cc1OC (stereo not drawn) | inactive | 2.2 | 5.5 | 2.5
COc1cc(CC(O)c2ccc(-c3ccc([N+](=O)[O-])cc3)cc2)c([N+](=O)[O-])cc1OC (stereo not drawn) | inactive | 4.7 | 21 | 4.5
COc1cc(CC(O)c2ccc(-c3ccccc3C#N)cc2)c([N+](=O)[O-])cc1OC (stereo not drawn) | inactive | > 9.3 | 9.3 | –
COc1cc(CC(O)c2ccc(-c3ccccc3F)cc2)c([N+](=O)[O-])cc1OC (stereo not drawn) | inactive | > 5 | 5 | –
COc1cc(CC(O)c2ccc(-c3ccc(Br)cc3)cc2)c([N+](=O)[O-])cc1OC (stereo not drawn) | inactive | > 4.3 | 4.3 | –
COc1cc(CC(O)c2ccc(-c3ccc(C=O)cc3)cc2)c([N+](=O)[O-])cc1OC (stereo not drawn) | inactive | > 245 | > 245 | –
COc1cc(CC(O)c2cccc(-c3ccc(C#N)cc3)c2)c([N+](=O)[O-])cc1OC (stereo not drawn) | inactive | > 9.3 | 9.3 | –
COc1cc(CC(O)c2ccc(-c3ccc(C)cc3)cc2)c([N+](=O)[O-])cc1OC (stereo not drawn) | inactive | > 4.7 | 4.7 | –
COc1ccc(-c2ccc(C(O)Cc3cc(OC)c(OC)cc3[N+](=O)[O-])cc2)cc1 (stereo not drawn) | inactive | > 244 | > 244 | –
COc1cc(CC(O)c2ccc(-c3cccnc3)cc2)c([N+](=O)[O-])cc1OC (stereo not drawn) | inactive | 2 | > 263 | > 132
COc1cc(CC(O)c2ccc(-c3ccncc3)cc2)c([N+](=O)[O-])cc1OC (stereo not drawn) | inactive | 3.4 | > 263 | > 77.3
COc1cc(CC(O)c2ccc(-c3ccc(C(F)(F)F)cc3)cc2)c([N+](=O)[O-])cc1OC (stereo not drawn) | inactive | > 6 | 4.1 | –
COc1cc(CC(O)c2ccc(-c3ccc(Cl)cc3)cc2)c([N+](=O)[O-])cc1OC (stereo not drawn) | inactive | > 4.1 | 4.1 | –
COc1cc(CC(O)c2ccc(-c3cccc(F)c3)cc2)c([N+](=O)[O-])cc1OC (stereo not drawn) | inactive | 2.2 | 7.4 | 3.4
COc1cc(CC(O)c2ccc(-c3cccc(C#N)c3)cc2)c([N+](=O)[O-])cc1OC (stereo not drawn) | inactive | 1.4 | 5.2 | 3.7
COc1cc(CC(O)c2ccc(-c3ccccc3)cc2)c([N+](=O)[O-])cc1OC (stereo not drawn) | – | 1.97 | – | –
COc1cc(CC(O)c2ccc(-c3ccoc3)cc2)c([N+](=O)[O-])cc1OC (stereo not drawn) | inactive | 1.6 | 5.3 | 3.3
COc1cc(CC(O)c2ccc(-c3cccc(CO)c3)cc2)c([N+](=O)[O-])cc1OC (stereo not drawn) | inactive | 1.4 | 6 | 4.3
COc1cc(CC(O)c2ccc(-c3ccc(C#N)cc3)cc2)c([N+](=O)[O-])cc1OC (stereo not drawn) | inactive | > 4.7 | 4.7 | –
Cc1cc(CCCOc2c(C)cc(-c3noc(C(F)(F)F)n3)cc2C)on1 [PLECONARIL] | inactive | 0.2 | 50.2 | –
COc1cc(CC(O)c2ccc(-c3cccc(Cl)c3)cc2)c([N+](=O)[O-])cc1OC (stereo not drawn) | inactive | 1.7 | 5.9 | 3.5
COc1cc(CC(O)c2cccc(-c3ccc(Cl)cc3)c2)c([N+](=O)[O-])cc1OC (stereo not drawn) | inactive | > 5 | 5 | –
COc1cc(CC(O)c2ccc(-c3ccc(F)cc3)cc2)c([N+](=O)[O-])cc1OC (stereo not drawn) | inactive | > 4.5 | 4.5 | –
